The target in assay [1] is T1, Plasminogen (Homo sapiens, UniProt P00747). Put plainly: Inhibition of human plasmin activity with chromozym-PL as substrate.
Assay [2] addresses Urokinase-type plasminogen activator (Homo sapiens, UniProt P00749).
In assay [3] the target is T2, Tissue-type plasminogen activator (Homo sapiens, UniProt P00750). Description: Inhibitory activity against human tissue type plasminogen activator was evaluated using S-2444 as substrate and tissue plasminogen activator stimulator at […].
Target sequence in this assay (P00750 36-562 limits assumed): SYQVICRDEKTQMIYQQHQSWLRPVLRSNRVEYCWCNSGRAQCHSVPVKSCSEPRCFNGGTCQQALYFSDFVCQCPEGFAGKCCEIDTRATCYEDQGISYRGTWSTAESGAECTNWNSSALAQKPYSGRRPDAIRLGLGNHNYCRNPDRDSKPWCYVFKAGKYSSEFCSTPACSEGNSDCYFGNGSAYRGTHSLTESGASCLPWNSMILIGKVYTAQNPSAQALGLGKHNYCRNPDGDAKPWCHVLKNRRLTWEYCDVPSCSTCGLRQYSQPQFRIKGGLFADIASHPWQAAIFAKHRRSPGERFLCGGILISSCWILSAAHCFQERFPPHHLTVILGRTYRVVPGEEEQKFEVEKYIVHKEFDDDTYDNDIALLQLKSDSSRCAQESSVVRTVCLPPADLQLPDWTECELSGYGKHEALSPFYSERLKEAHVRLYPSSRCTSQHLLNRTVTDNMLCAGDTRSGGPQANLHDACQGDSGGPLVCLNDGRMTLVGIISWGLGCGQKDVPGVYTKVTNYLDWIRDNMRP
The target in assay [4] is T1, Plasminogen. Put plainly: Inhibitory activity of 30 uM compound against plasmin was evaluated using chromozym-PL as substrate.
The target in assay [5] is T2, Tissue-type plasminogen activator. Put plainly: Inhibitory activity against human tissue plasminogen activator was evaluated using S-2444 as substrate and tissue plasminogen activator stimulator at 30 uM.
Target sequence in this assay (P00750 36-562 limits assumed): as above
In assay [6] the target is T1, Plasminogen. Description: Inhibitory activity against human plasmin was evaluated using chromozym-PL as substrate at 10 uM.
In assay [7] the target is T1, Plasminogen. Description: Inhibitory activity against human plasmin was evaluated using chromozym-PL as substrate at 100 mM.
For assay [8], the target named is T1, Plasminogen. Put plainly: Inhibitory activity against human plasmin was evaluated using chromozym-PL as substrate at 300 mM.
Assay [9] addresses T2, Tissue-type plasminogen activator. Put plainly: Inhibitory activity against human tissue plasminogen activator was evaluated using S-2444 as substrate and tissue plasminogen activator stimulator at 1 mM.
Target sequence in this assay (P00750 36-562 limits assumed): as above
Assay [10] deals with T1, Plasminogen. Put plainly: Inhibitory activity of 3 uM compound against plasmin was evaluated using chromozym-PL as substrate.
Assay [11] has as its target T2, Tissue-type plasminogen activator. Description: Inhibitory activity against human tissue type plasminogen activator using S-2444.
Target sequence in this assay (P00750 whole entry): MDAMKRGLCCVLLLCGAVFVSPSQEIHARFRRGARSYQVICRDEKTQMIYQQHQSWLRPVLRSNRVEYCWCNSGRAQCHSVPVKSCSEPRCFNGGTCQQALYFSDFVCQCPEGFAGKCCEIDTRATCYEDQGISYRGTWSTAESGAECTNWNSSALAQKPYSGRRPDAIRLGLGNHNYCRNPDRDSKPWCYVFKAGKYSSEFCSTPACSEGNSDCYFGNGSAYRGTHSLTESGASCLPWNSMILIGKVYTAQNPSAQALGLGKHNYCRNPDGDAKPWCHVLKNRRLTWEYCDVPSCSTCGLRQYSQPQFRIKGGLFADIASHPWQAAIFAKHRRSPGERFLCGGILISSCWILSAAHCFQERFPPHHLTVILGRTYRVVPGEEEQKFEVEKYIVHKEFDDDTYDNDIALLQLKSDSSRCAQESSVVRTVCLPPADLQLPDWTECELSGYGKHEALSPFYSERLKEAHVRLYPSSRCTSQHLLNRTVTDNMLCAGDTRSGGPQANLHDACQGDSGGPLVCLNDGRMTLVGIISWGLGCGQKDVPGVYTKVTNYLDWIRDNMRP
The target of assay [12] is T1, Plasminogen. Description: (§1) Inhibitory activity against human plasmin was evaluated using chromozym-PL as substrate at 1 mM.
The target in assay [13] is T1, Plasminogen. The assay is described as §1. This is another data set of the same source.

SMILES strings stand for the structures. pKi: −log10 of the molar value. A value given as a limit tells only on which side of the number the result lay.

T1 sequence (P00747 97-580 limits assumed): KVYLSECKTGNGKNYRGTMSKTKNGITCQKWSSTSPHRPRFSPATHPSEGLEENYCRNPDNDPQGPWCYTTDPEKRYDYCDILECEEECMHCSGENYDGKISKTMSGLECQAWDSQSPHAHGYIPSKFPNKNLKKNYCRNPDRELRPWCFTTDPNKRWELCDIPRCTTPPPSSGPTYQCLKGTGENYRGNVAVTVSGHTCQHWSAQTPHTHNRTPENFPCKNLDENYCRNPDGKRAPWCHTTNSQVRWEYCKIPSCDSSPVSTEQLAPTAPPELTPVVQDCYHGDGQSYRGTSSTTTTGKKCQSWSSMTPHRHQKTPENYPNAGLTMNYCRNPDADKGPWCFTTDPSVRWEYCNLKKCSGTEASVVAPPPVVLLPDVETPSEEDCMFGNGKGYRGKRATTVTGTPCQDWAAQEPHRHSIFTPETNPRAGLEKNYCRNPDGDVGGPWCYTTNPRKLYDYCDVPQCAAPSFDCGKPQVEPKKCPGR
T1 sequence (P00747 581-810 limits assumed): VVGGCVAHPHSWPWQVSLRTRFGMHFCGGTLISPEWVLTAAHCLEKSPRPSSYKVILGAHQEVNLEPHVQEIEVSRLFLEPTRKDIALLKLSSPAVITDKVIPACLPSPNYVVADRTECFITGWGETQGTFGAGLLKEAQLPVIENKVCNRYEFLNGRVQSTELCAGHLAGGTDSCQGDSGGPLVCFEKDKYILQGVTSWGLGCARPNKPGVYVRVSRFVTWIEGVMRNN

As usually defined, the pKi is the negative decadic logarithm of the Ki, by convention in mol/L. In general, inhibition refers to the relative decrease from the control value, in per cent. Higher therefore signals strong suppression. With `COc1ccc(C(=O)O)cc1-c1ccc2c(Cl)cnc(N=C(N)N)c2c1`, the pKi was 5.32 at Plasminogen [1] and 8.05 in assay [2]. In [3], this compound came in with an inhibition of less than 50%.

For the compound `N=C(N)Nc1ncc(Cl)c2ccc(-c3ccccc3)cc12`, the inhibition (at Plasminogen [4]; in assay [5]) was less than 50% throughout.

In the case of `N#Cc1ccc(-c2ccc3c(Cl)cnc(NC(=N)N)c3c2)cc1`, the inhibition is 82% at Plasminogen [6] and less than 50% in [3].

As for `COc1ccc(C#N)cc1-c1ccc2c(Cl)cnc(N=C(N)N)c2c1`, the inhibition (on Plasminogen [4]; in assay [3]) was less than 50% each time. In assay [2], this compound gave a pKi of 6.74.

In assay [2], `N#Cc1ccc(-c2ccc3c(Cl)cnc(N=C(N)N)c3c2)cc1` gave a pKi of 6.31.

On to `CC(O)c1ccc2ccnc(N=C(N)N)c2c1` (configuration not stated), for which the pKi was 4.62 at Plasminogen [1] and 6.19 in assay [2]. In assay [3], this compound had an inhibition of less than 50%.

Consider `COc1ccc2ccnc(N=C(N)N)c2c1`, for which the inhibition (on Plasminogen [7]; in assay [3]) was less than 50% throughout. The pKi in assay [2] is 6.18.

As for `COc1cccc2c(N=C(N)N)nccc12`, the inhibition (against Plasminogen [8]; in [9]) was less than 50% throughout. Also, the pKi in assay [2] was 5.44.

On to `N=C(N)Nc1ncc(Cl)c2ccc(-c3ccc(C(=O)O)cc3)cc12`, for which the figures for the inhibition (on Plasminogen [10]; in assay [3]) were 65% and less than 50%, respectively. Moreover, in [2], the pKi is 7.09.

With `N=C(N)Nc1ncc(Cl)c2ccc(-c3ccc4c(c3)OCO4)cc12`, the pKi was 5.49 on Plasminogen [1] and 7.00 in assay [2]. Also, the inhibition in [3] is less than 50%.

As for `NC(N)=Nc1nccc2ccc(-c3ccccc3)cc12`, the values for the pKi (in [11]; at Plasminogen [1]; in assay [2]) were 3.91, 4.32 and 6.40, respectively.

With `N=C(N)Nc1ncc(Cl)c2ccc(-c3cccc(C(=O)O)c3)cc12`, the inhibition (on Plasminogen [6]; in assay [3]) was less than 50% in each case.

In the case of `NC(N)=Nc1nccc2ccc(Br)cc12`, the pKi in assay [11] was 4.02; on Plasminogen [1] it was 4.29.

Regarding `NC(N)=Nc1nccc2cc(Br)ccc12`, the pKi at Plasminogen [1] is 3.88.

With `COc1ccc(-c2ccc3c(Cl)cnc(N=C(N)N)c3c2)cc1`, on Plasminogen [1], the pKi is 5.52. The compound also returned an inhibition in assay [3] of less than 50%.

As to `N=C(N)Nc1nccc2ccc(CO)cc12`, the inhibition against Plasminogen [7] is 55%; in assay [3], less than 50%. The same compound gave a pKi in assay [2] of 5.89.

`N=C(N)Nc1nccc2c(OCc3ccccc3)cccc12`: the inhibition against Plasminogen [7] was less than 50%.

For the compound `N=C(N)Nc1cc2ccccc2cn1`, the inhibition (against Plasminogen [12]; in assay [9]) was less than 50% each time.

For the compound `NC(N)=Nc1nccc2ccccc12`, the pKi was 3.90 in assay [11], 4.17 at Plasminogen [13] and 5.72 in assay [2].

With `COc1ccccc1-c1ccc2c(Cl)cnc(N=C(N)N)c2c1`, the pKi in [11] is 4.81; at Plasminogen [1] it was 4.84.

In turn, `N=C(N)Nc1nccc2ccc(OCc3ccccc3)cc12` yielded an inhibition on Plasminogen [7] of less than 50%. The pKi in assay [11] was 4.89; in [2], 5.32.

For `N=C(N)Nc1ncc(Br)c2ccccc12`, the pKi in assay [11] was 3.80. On Plasminogen [12], this compound displayed an inhibition of less than 50%.

Regarding `COc1cccc(-c2ccc3c(Cl)cnc(N=C(N)N)c3c2)c1`, the pKi in assay [2] was 7.08. Moreover, in assay [3], the inhibition was less than 50%.

In turn, `N=C(N)Nc1nccc2ccc(-c3ccc4c(c3)OCO4)cc12` had a pKi on Plasminogen [1] of 4.92. In [9], this compound showed an inhibition of 55%.

Turning to `NC(N)=Nc1nccc2c(OCc3ccccc3)cccc12`, the pKi in [11] was 4.89.

Take `Cc1ccc(-c2ccc3c(Cl)cnc(N=C(N)N)c3c2)cc1`: the figures for the pKi (in [11]; at Plasminogen [1]; in assay [2]) were 4.72, 5.14 and 6.89, respectively.

As to `N=C(N)Nc1ncc(Cl)c2ccccc12`, at Plasminogen [12], the inhibition is less than 50%.

Turning to `N=C(N)Nc1nccc2c(Br)cccc12`, the pKi is 3.85 in assay [11], 3.62 on Plasminogen [1] and 5.31 in assay [2].

On to `Cc1cnc(N=C(N)N)c2ccccc12`, for which the inhibition (against Plasminogen [7]; in assay [3]) was less than 50% throughout.

For the compound `N#Cc1cccc(-c2ccc3c(Cl)cnc(N=C(N)N)c3c2)c1`, the results for the negative logarithm of the Ki (pKi) (on Plasminogen [1]; in assay [2]) were 5.39 and 6.52, respectively.

Turning to `N#Cc1cccc(-c2ccc3c(Cl)cnc(NC(=N)N)c3c2)c1`, in [3], the inhibition was less than 50%.

Consider `N=C(N)Nc1nccc2ccc(C(=O)O)cc12`, for which the inhibition (on Plasminogen [7]; in assay [3]) was less than 50% each time.

Regarding `NC(N)=Nc1ccc2ccccc2n1`, the pKi in assay [11] is 3.44; in assay [2], 3.68.

For the compound `NC(N)=Nc1nccc2c(-c3ccccc3)cccc12`, the pKi was 3.91 in assay [11], 4.32 on Plasminogen [1] and less than 4.00 in [2].

In the case of `NC(N)=Nc1ncc(Cl)c2ccccc12`, the values for the pKi in [11] and in [2] were 3.89 and 6.08, respectively.

With `N=C(N)Nc1ccc2ccccc2n1`, the inhibition at Plasminogen [12] is less than 50%.

As for `NC(N)=Nc1ncc(Cl)c2ccc(-c3cccc(C(=O)O)c3)cc12`, the pKi in [2] was 7.43.

`N=C(N)Nc1ccccn1` had a pKi in [2] of 4.54.

Consider `N=C(N)Nc1nccc2cc(Br)ccc12`, for which the inhibition in assay [9] is less than 50%.
